Data published in US20240398737A1, “FUNCTIONALIZED LONG-CHAIN HYDROCARBON MONO- AND DI-CARBOXYLIC ACIDS AND DERIVATIVES THEREOF, AND THEIR USE FOR THE PREVENTION OR TREATMENT OF DISEASE” (Espervita Therapeutics, Inc., priority 2021, published 2024).

Tests used:
[1] = system: human hematopoietic stem and progenitor cells; assay: Megakaryopoiesis and platelet production in cultured human hematopoietic stem and progenitor cells; assay type: cell-based; conditions: added day 0, 8 days culture, I-32 and I-1 30 μM, ABT-737 6 μmol
Protocol: Materials and Methods. Hematopoietic stem and progenitor cells, identified as viable CD45+ CD34+ cells, were isolated from peripheral blood of healthy donors by a method known in the art (see Ivetic N, Nazi I, Karim N et al. Producing megakaryocytes from a human peripheral blood source. Transfusion 2016; 56:1066-74). These isolated cells were then analyzed for purity before being expanded for four days using a commercial supplement to increase their cell population. After expansion, the cells were analyzed for purity, washed, and stimulated with a saturating concentration of thrombopoietin (20 ng/mL) and stem cell factor (50 ng/mL) to begin megakaryopoiesis. Compound I-32 and Compound I-1 were added at this timepoint at a concentration of 30 μM. The cells were then cultured for 8 days to develop into megakaryocytes and analyzed via flow cytometry to assess their number, maturity, and platelet count as defined by CD41a, CD42b and Calcein-AM expression. In addition, Compound I-32 and Compound I-1 were added to cells during the later stages of development (day 6) to assess their impact on maturation. ABT-737 (6 μmol) was used as a positive control and a DMSO vehicle control (<0.15% v/v) was the negative control. All counts are normalized to a media control (PBS) as a reference for basic cell growth.
Statistical analysis. Statistical analyses were carried out by comparing effects on measured parameters in comparison to vehicle control. A value of […] (One-way ANOVA multiple comparisons) was considered as significant.
Two isolations were performed from two healthy donors (2 males) and used to assess the impacts of Compound I-32 and Compound I-1. For one of the isolations, enough expanded hematopoietic stem and progenitor cells (HSPC) (Experiment 1) were obtained so that the addition of the compounds on day 6 was also performed along with the initial experiment. For the other experiment (Experiment 2) only an 8-day incubation was performed.
All results were normalized to a reference media (PBS) and Compound I-32 and Compound I-1 were compared to a vehicle control. Reference compound ABT-737 is a known BCL-2 inhibitor and was used a positive control. Results in FIGS. 25A-25J are the summary of a single experiments conducted in triplicates. No statistical inhibition was detected for Compound I-32 or Compound I-1 (p>0.05 one-way ANOVA).

[2] = system: Mouse primary hepatocytes; assay: 14C-acetate incorporation into total lipids in mouse primary hepatocytes; assay type: cell-based; conditions: incorporation of 14C-acetate in primary mouse hepatocyte total lipids, 4 hours; for inhibition at 100 µM: read-out: % change from control at 100 μM ± SEM(n)
Protocol: After perfusion, collagen digested liver cells were re-suspended in William's E media (11 mM glucose) (Gibco) supplemented with 10% fetal bovine serum (FBS) (Gibco), 2 mM L-glutamine (Gibco) and 1% Antibiotic-Antimycotic (Gibco) mixture and seeded in white opaque 96-well plates. On the following day, the cells were serum-starved for 2 hours, then treated with 0 μM, 0.1 μM, 0.3 μM, 0.5 μM, 1 μM, 3 μM, 10 μM, and 100 μM of Compound I-32, Compound I-1, Compound III-1 or Reference Compound (e.g., any of Compounds A-E or bempedoic acid) in the presence of ^14C-Acetate (1 μCi/ml, PerkinElmer). Each of Compound I-32, Compound I-1, Compound III-1, and Reference Compound was solubilized in 100% DMSO to a final concentration of 100 mM stock solution. In the experimental condition, the stock solution was diluted in serum free media (William's E media (11 mM glucose) (Gibco), 2 mM L-glutamine (Gibco) and 1% Antibiotic-Antimycotic) to yield the desired concentration of each compound. […] After 4 hours of treatment, the plates were washed two times with PBS (×1) and 100 μL microscint fluid (Microscint 0, part #601361) was added in each well. Plates were wrapped with aluminum foil and were shaken at 250 rpm for 2 h. After 2 h of shaking, ^14C incorporation into lipid was determined by liquid scintillation counting using a TopCount NXT Microplate Scintillation and Luminescence Counter (Perkin Elmer).
The effects of Compound I-32, Compound I-1, and Compound III-1 on mouse primary hepatocyte lipogenesis are represented in Table 13. Each Compound was assayed at a concentration of 0 μM (vehicle control), 0.1 μM, 0.3 μM, 0.5 μM, 1 μM, 3 μM, 10 μM, and 100 μM, unless otherwise noted. Statistically significant inhibition was determined by one-way ANOVA and Dennett's post hoc test where appropriate. […] IC50 values were determined by nonlinear regression. All statistical analyses were carried out using GraphPad Prism 8 software. A p-value of less than or equal 0.05 was considered significant.

human ACLY = human ACLY (Homo sapiens (Human), UniProt P53396); assay: ATP-citrate lyase (ACLY) enzymatic assay (ADP-Glo); assay type: biochemical; conditions: recombinant human ACLY; 10 concentrations from 300 μM; Runs 1-3; read-out: Compound IC50 (M) ACLY
Protocol: ATP citrate lyase was obtained from Sino Biological Inc. Cat #11769-H07B, Lot #LC08DE1701. It was prepared from a DNA sequence encoding the human ACLY (P53396) (Met 1-Met 1101) expressed in Baculovirus-Insect Cells, with a polyhistidine tag at the N-terminus. The recombinant human ACLY consists of 1120 amino acids and has a calculated molecular mass of 123 kDa. It migrates as an approximately 110 kDa band in SDS-PAGE under reducing conditions. The enzyme came as a lyophilized powder in sterile 20 mM Tris, 500 mM NaCl, pH 8.0, 10% glycine. Normally 5%-8% trehalose and mannitol are added as protectants before lyophilization. The recombinant human ACLY from Sino Biological was formulated in 45 mM Tris-HCl, pH 8.0, 124 mM NaCl, 2.4 mM KCl, 18 mM glutathione, 10% glycerol, and 3 mM DTT.
To detect ADP produced from ACL assay, the ADP-Glo™ assay format from Promega, Madison, WI, was used, to detect the conversion of ATP to ADP. […] This assay is performed in two steps: i) after the ACL-mediated enzymatic reaction that utilizes ATP and produces ADP, ADP-Glo™ Reagent is added to terminate the kinase reaction and deplete the remaining ATP, and ii) the Kinase Detection Reagent is added to convert ADP to ATP and allow the newly synthesized ATP to be measured using a luciferase/luciferin reaction. The light generated, measured in a luminometer, correlates to the amount of ADP generated in the ACL assay, which is indicative of ACL activity.
Data represent nM or μM ADP produced, % Activity (relative to no inhibitor controls), and curve fits were performed by GraphPad Prism software. The IC50 concentration-response curves were generated for ADPGlo™ using recombinant human ACL from Sino Biologicals Inc.

[3] = Synthesis of CoA derivatives in rat liver microsomes (LCMS detection); assay type: in vitro ADME; conditions: 1 mM substrate, 30 min sample
Protocol: Reaction products were eluted using the gradient shown below: […]
Formation and detection of the Co-A derivatives of Compounds 1-32, 1-61, I-1 or III-1 in rat liver microsomes: 1 mM of each compound (Compounds I-32, I-61, I-1 or III-1) or palmitic acid (control) were used as substrate in the rat microsomal preparation for 0 and 30 min and extracted as described above. […] Further confirmation was obtained by exposing the compound to a collision energy causing the characteristic neutral loss of 3′-phosphonucleoside diphosphate (507 Da) producing the fragment ion 499.3 m/z. There was no evidence of the CoA derivative in the time 0 min sample.

human ACLY, sequence (P53396 whole entry): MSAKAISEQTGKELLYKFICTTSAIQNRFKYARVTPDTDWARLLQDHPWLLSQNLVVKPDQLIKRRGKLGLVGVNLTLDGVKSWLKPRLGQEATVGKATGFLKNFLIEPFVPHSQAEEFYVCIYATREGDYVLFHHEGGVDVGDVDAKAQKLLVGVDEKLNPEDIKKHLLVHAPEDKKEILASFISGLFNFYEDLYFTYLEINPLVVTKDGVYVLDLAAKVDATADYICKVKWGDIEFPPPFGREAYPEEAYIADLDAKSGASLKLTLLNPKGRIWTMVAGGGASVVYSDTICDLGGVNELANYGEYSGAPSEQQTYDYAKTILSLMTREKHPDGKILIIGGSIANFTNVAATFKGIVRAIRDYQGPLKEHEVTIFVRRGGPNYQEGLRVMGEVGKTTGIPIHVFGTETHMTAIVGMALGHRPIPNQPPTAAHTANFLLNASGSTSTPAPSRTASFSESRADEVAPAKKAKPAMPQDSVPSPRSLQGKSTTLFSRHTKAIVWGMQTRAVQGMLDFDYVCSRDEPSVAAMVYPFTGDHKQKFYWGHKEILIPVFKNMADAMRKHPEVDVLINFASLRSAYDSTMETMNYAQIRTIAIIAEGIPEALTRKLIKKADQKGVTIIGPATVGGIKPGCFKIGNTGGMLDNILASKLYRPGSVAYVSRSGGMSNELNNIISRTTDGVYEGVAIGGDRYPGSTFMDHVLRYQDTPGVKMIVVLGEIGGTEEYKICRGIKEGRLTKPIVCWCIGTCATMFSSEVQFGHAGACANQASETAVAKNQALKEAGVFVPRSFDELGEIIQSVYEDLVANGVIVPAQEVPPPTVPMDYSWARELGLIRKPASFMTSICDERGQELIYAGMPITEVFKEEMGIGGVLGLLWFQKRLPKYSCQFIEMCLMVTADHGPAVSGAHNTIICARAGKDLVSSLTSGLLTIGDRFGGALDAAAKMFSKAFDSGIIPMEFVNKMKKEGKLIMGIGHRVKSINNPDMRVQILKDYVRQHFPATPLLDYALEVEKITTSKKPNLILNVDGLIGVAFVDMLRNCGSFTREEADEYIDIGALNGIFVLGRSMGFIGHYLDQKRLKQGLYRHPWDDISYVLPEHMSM

SMILES: CN(C)CC[C@H](CSc1ccccc1)Nc1ccc(S(=O)(=O)NC(=O)c2ccc(N3CCN(Cc4ccccc4-c4ccc(Cl)cc4)CC3)cc2)cc1[N+](=O)[O-] [ABT-737, reference compound]
- CD41a+ mean fluorescence intensity (MFI), normalized [1]: 46±34%
- Normalized cell size (CD41a+) [1]: 81±6%
- CD41a CD42b+ counts (mature megakaryocytes), normalized to reference media control ([1]; average±SD): 2±1%
- CD41a+ cells (megakaryocytes), normalized to reference media control ([1]; average±SD): 9±5%
- Platelet counts, normalized to reference media control ([1]; average±SD): 3±3%

SMILES: CC(C)(CO)CCCCC(=O)CCCCC(C)(C)CO [A]
- % change from control at 100 μM ± SEM(n) [2]: −41 ± 4.8 (n = 2) %

SMILES: CC(C)(CCCCCC(O)CCCCCC(C)(C)C(=O)O)C(=O)O [BA, Bempedoic acid]
- % change from control at 100 μM ± SEM(n) [2]: −79 ± 1.5 (n = 4) %

SMILES: COc1ccc(-c2ccccc2)cc1NS(=O)(=O)c1cc(Cl)cc(Cl)c1O [BMS-303141, reference compound]
- IC50 (human ACLY): 4.45e-07 M

SMILES: CC(C)(CO)CCCCC(=O)CCCCC(C)(C)C(=O)O [B]
- IC50 [2]: 25.6 µM
- inhibition at 100 µM [2]: 69 ± 2.3%

SMILES: CC(C)(CCCCCC(=O)CCCCCC(C)(C)C(=O)O)C(=O)O [C]
- inhibition at 100 µM [2]: 76 ± 41%

SMILES: CC(C)(CO)CCCCCC(=O)CCCCCC(C)(C)CO [D]
- % change from control at 100 μM ± SEM(n) [2]: −90 ± 1.5 (n = 4) %

SMILES: CC(C)(CCCCCCC(=O)CCCCCCC(C)(C)C(=O)O)C(=O)O [E]
- % change from control at 100 μM ± SEM(n) [2]: −62 ± 4.5 (n = 4) %

SMILES: CC(C)(CCCCCCCCCCCC(C)(C)C(=O)O)C(=O)O [F]
- % change from control at 100 μM ± SEM(n) [2]: −91 ± 3.6 (n = 4) %

SMILES: CC(C)(CCCc1ccccc1CCCC(C)(C)C(=O)SCCNC(=O)CCNC(=O)[C@H](O)C(C)(C)COP(=O)(O)OP(=O)(O)OC[C@H]1O[C@@H](n2cnc3c(N)ncnc32)[C@H](O)[C@@H]1OP(=O)(O)O)C(=O)O [I-61—CoA]
- Formation of the CoA derivative (LCMS detection, fragmentation confirmation) [3]: could not be confirmed

SMILES: CC(C)(CCCc1ccc(CCCC(C)(C)C(=O)O)cc1)C(=O)O [III-1]
- % change from control at 100 μM ± SEM(n) [2]: −70 ± 2.2 (n = 4) %
